Measurements as given in US9113629B2, “4-amino-6-(4-substituted-phenyl)-picolinates and 6-amino-2-(4-substituted-phenyl)-pyrimidine-4-carboxylates and their use as herbicides” (DOW AGROSCIENCES LLC, priority 2013, dated 2015).
Where two headings read alike, the source gives them in different places.

Columns and labels:
[1] = test system: Key Grass and Sedge Weeds as well as Grass Crops; experiment: Post-emergent Test II herbicidal activity (Table 6); type: in vivo; conditions: post-emergence, 336 h; for pest or weed control at 70 g/ha: application rate 70 g ai/ha; for pest or weed control at 140 g/ha: application rate 140 g ai/ha
In short: (§1)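 Compounds, dissolved in 97:3 acetone/DMSO and diluted into an aqueous carrier containing crop oil concentrate and Triton X-155, are applied over the top of young plants at 187 L/ha. Injury is scored visually at 14 d, 0% meaning no effect and 100% complete kill.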

[2] = test system: Key Broadleaf Weed and Crop Species; experiment: Post-emergent Test II herbicidal activity (Table 5); type: in vivo; conditions: post-emergence, 336 h, 14 days after application
In short: as §1

[3] = CYPES: yellow nutsedge (Cyperus esculentus), read-out: Visual Growth Reduction (%) 14 Days After Application, CYPES
[4] = DIGSA: crabgrass (Digitaria sanguinalis), read-out: Visual Growth Reduction (%) 14 Days After Application, DIGSA
[5] = ECHCG: barnyardgrass (Echinochloa crus-galli), read-out: Visual Growth Reduction (%) 14 Days After Application, ECHCG
[6] = ORYSA: rice (Oryza sativa), read-out: Visual Growth Reduction (%) 14 Days After Application, ORYSA
[7] = SETFA: giant foxtail (Setaria faberi), read-out: Visual Growth Reduction (%) 14 Days After Application, SETFA
[8] = SORVU: grain sorghum (Sorghum vulgare), read-out: Visual Growth Reduction (%) 14 Days After Application, SORVU
[9] = TRZSS (wheat, Triticum aestivum), read-out: Visual Growth Reduction (%) 14 Days After Application, TRZSS
[10] = ZEAMX: maize, corn (Zea mays), read-out: Visual Growth Reduction (%) 14 Days After Application, ZEAMX
[11] = Triticum aestivum, TRZSS (wheat), read-out: Visual Growth Reduction (%) 14 Days After Application, TRZSS

## Nc1cc(-c2c(F)cc(I)c(F)c2F)nc(C(=O)O)c1Cl [Compound 68]
[1]; [3]
  pest or weed control at 70 g/ha: 95 to 100%
  pest or weed control at 140 g/ha: 95 to 100%
[1]; [4]
  pest or weed control at 70 g/ha: 75 to 84%
  pest or weed control at 140 g/ha: 75 to 84%
[1]; [5]
  pest or weed control at 70 g/ha: 85 to 94%
  pest or weed control at 140 g/ha: 75 to 84%
[1]; [6]
  pest or weed control at 70 g/ha: 45 to 59%
  pest or weed control at 140 g/ha: 45 to 59%
[1]; [7]
  pest or weed control at 70 g/ha: 85 to 94%
  pest or weed control at 140 g/ha: 75 to 84%
[1]; [8]
  pest or weed control at 70 g/ha: 95 to 100%
  pest or weed control at 140 g/ha: 95 to 100%
[1]; [9]
  pest or weed control at 70 g/ha: 30 to 44%
  pest or weed control at 140 g/ha: 45 to 59%
[1]; [10]
  pest or weed control at 70 g/ha: 0 to 29%
  pest or weed control at 140 g/ha: 75 to 84%
other
  melting point: 170.1 to 172.6 °C
[2]; ABUTH: velvetleaf (Abutilon theophrasti), 70 g ai/ha, post-emergent, read-out: Visual Growth Reduction (%) 14 Days After Application ABUTH
  pest or weed control at 70 g/ha: 85 to 94%
[2]; ABUTH: velvetleaf (Abutilon theophrasti), 140 g ai/ha, post-emergent, read-out: Visual Growth Reduction (%) 14 Days After Application ABUTH
  pest or weed control at 140 g/ha: 85 to 94%
[2]; AMARE: redroot pigweed (Amaranthus retroflexus), 70 g ai/ha, post-emergent, read-out: Visual Growth Reduction (%) 14 Days After Application AMARE
  pest or weed control at 70 g/ha: 95 to 100%
[2]; AMARE: redroot pigweed (Amaranthus retroflexus), 140 g ai/ha, post-emergent, read-out: Visual Growth Reduction (%) 14 Days After Application AMARE
  pest or weed control at 140 g/ha: 95 to 100%
[2]; BRSNN: oilseed-rape, canola (Brassica napus), 70 g ai/ha, post-emergent, read-out: Visual Growth Reduction (%) 14 Days After Application BRSNN
  pest or weed control at 70 g/ha: 95 to 100%
[2]; BRSNN: oilseed-rape, canola (Brassica napus), 140 g ai/ha, post-emergent, read-out: Visual Growth Reduction (%) 14 Days After Application BRSNN
  pest or weed control at 140 g/ha: 95 to 100%
[2]; CHEAL: lambsquarters (Chenopodium album), 70 g ai/ha, post-emergent, read-out: Visual Growth Reduction (%) 14 Days After Application CHEAL
  pest or weed control at 70 g/ha: 95 to 100%
[2]; CHEAL: lambsquarters (Chenopodium album), 140 g ai/ha, post-emergent, read-out: Visual Growth Reduction (%) 14 Days After Application CHEAL
  pest or weed control at 140 g/ha: 95 to 100%
[2]; EPHHL: wild poinsettia (Euphorbia heterophylla), 70 g ai/ha, post-emergent, read-out: Visual Growth Reduction (%) 14 Days After Application EPHHL
  pest or weed control at 70 g/ha: 95 to 100%
[2]; EPHHL: wild poinsettia (Euphorbia heterophylla), 140 g ai/ha, post-emergent, read-out: Visual Growth Reduction (%) 14 Days After Application EPHHL
  pest or weed control at 140 g/ha: 95 to 100%
[2]; HELAN: sunflower (Helianthus annuus), 70 g ai/ha, post-emergent, read-out: Visual Growth Reduction (%) 14 Days After Application HELAN
  pest or weed control at 70 g/ha: 60 to 74%
[2]; HELAN: sunflower (Helianthus annuus), 140 g ai/ha, post-emergent, read-out: Visual Growth Reduction (%) 14 Days After Application HELAN
  pest or weed control at 140 g/ha: 0 to 29%
[2]; VIOTR: wild pansy (Viola tricolor), 70 g ai/ha, post-emergent, read-out: Visual Growth Reduction (%) 14 Days After Application VIOTR
  pest or weed control at 70 g/ha: 95 to 100%
[2]; VIOTR: wild pansy (Viola tricolor), 140 g ai/ha, post-emergent, read-out: Visual Growth Reduction (%) 14 Days After Application VIOTR
  pest or weed control at 140 g/ha: 95 to 100%

## COC(=O)c1nc(-c2ccc(I)c(F)c2F)cc(N)c1Cl [Compound 129, Methyl 4-amino-3-chloro-6-(2,3-difluoro-4-iodophenyl)picolinate]
[1]; [11]
  pest or weed control at 70 g/ha: 45 to 59%
  pest or weed control at 140 g/ha: 45 to 59%
[1]; [3]
  pest or weed control at 70 g/ha: 95 to 100%
[1]; [4]
  pest or weed control at 70 g/ha: 60 to 74%
  pest or weed control at 140 g/ha: 60 to 74%
[1]; [5]
  pest or weed control at 70 g/ha: 75 to 84%
  pest or weed control at 140 g/ha: 75 to 84%
[1]; [6]
  pest or weed control at 70 g/ha: 0 to 29%
  pest or weed control at 140 g/ha: 0 to 29%
[1]; [8]
  pest or weed control at 70 g/ha: 95 to 100%
  pest or weed control at 140 g/ha: 95 to 100%
[1]; [10]
  pest or weed control at 70 g/ha: 60 to 74%
  pest or weed control at 140 g/ha: 75 to 84%
other
  melting point: 172 to 174 °C
[2]; ABUTH: velvetleaf (Abutilon theophrasti), application rate 70 g ai/ha, read-out: Visual Growth Reduction (%) 14 Days After Application, ABUTH
  pest or weed control at 70 g/ha: 95 to 100%
[2]; ABUTH: velvetleaf (Abutilon theophrasti), application rate 140 g ai/ha, read-out: Visual Growth Reduction (%) 14 Days After Application, ABUTH
  pest or weed control at 140 g/ha: 95 to 100%
[2]; AMARE: redroot pigweed (Amaranthus retroflexus), application rate 70 g ai/ha, read-out: Visual Growth Reduction (%) 14 Days After Application, AMARE
  pest or weed control at 70 g/ha: 95 to 100%
[2]; AMARE: redroot pigweed (Amaranthus retroflexus), application rate 140 g ai/ha, read-out: Visual Growth Reduction (%) 14 Days After Application, AMARE
  pest or weed control at 140 g/ha: 95 to 100%
[2]; BRSNN: oilseed-rape, canola (Brassica napus), application rate 70 g ai/ha, read-out: Visual Growth Reduction (%) 14 Days After Application, BRSNN
  pest or weed control at 70 g/ha: 85 to 94%
[2]; BRSNN: oilseed-rape, canola (Brassica napus), application rate 140 g ai/ha, read-out: Visual Growth Reduction (%) 14 Days After Application, BRSNN
  pest or weed control at 140 g/ha: 95 to 100%
[2]; CHEAL: lambsquarters (Chenopodium album), application rate 70 g ai/ha, read-out: Visual Growth Reduction (%) 14 Days After Application, CHEAL
  pest or weed control at 70 g/ha: 95 to 100%
[2]; CHEAL: lambsquarters (Chenopodium album), application rate 140 g ai/ha, read-out: Visual Growth Reduction (%) 14 Days After Application, CHEAL
  pest or weed control at 140 g/ha: 95 to 100%
[2]; EPHHL: wild poinsettia (Euphorbia heterophylla), application rate 70 g ai/ha, read-out: Visual Growth Reduction (%) 14 Days After Application, EPHHL
  pest or weed control at 70 g/ha: 95 to 100%
[2]; EPHHL: wild poinsettia (Euphorbia heterophylla), application rate 140 g ai/ha, read-out: Visual Growth Reduction (%) 14 Days After Application, EPHHL
  pest or weed control at 140 g/ha: 95 to 100%
[2]; HELAN: sunflower (Helianthus annuus), application rate 70 g ai/ha, read-out: Visual Growth Reduction (%) 14 Days After Application, HELAN
  pest or weed control at 70 g/ha: 75 to 84%
[2]; HELAN: sunflower (Helianthus annuus), application rate 140 g ai/ha, read-out: Visual Growth Reduction (%) 14 Days After Application, HELAN
  pest or weed control at 140 g/ha: 85 to 94%
[2]; VIOTR: wild pansy (Viola tricolor), application rate 70 g ai/ha, read-out: Visual Growth Reduction (%) 14 Days After Application, VIOTR
  pest or weed control at 70 g/ha: 95 to 100%
[2]; VIOTR: wild pansy (Viola tricolor), application rate 140 g ai/ha, read-out: Visual Growth Reduction (%) 14 Days After Application, VIOTR
  pest or weed control at 140 g/ha: 95 to 100%
